Measurements published in publication PMC12370890 (Nature Communications, 2025).

Test system: Tcie612
Assay: GC-MS of hexane extract, Michaelis-Menten fit
Format: biochemical, Trichoderma citrinoviride
Settings: 25 mM MgCl2, 50 mM Tris-HCl pH 7.5, 100 mM KCl, 5 mM DTT, 5 mM hydroxypropyl-β-cyclodextrin, 30 °C, 30 min

## CC(C)=CCC/C(C)=C/CC/C(C)=C/CC/C(C)=C/COP(=O)(O)OP(=O)(O)O [GGPP]
  Km: 86.1 ± 8.19 µM
